The values that follow are results of earlier work, collected in US20240000880A1, “A PHARMACEUTICAL COMPOSITION FOR PREVENTING AND TREATING LUNG INJURY, A PREPARATION METHOD THEREFOR AND A USE THEREOF” (priority 2020, published 2024).

The data set relates to rats with chronic obstructive pulmonary disease. The conditions noted are these: rats with COPD; previous studies.

On to `Oc1ccc(C=Cc2cc(O)cc(O)c2)cc1` [resveratrol], for which the “antioxidant efficacy on chronic obstructive pulmonary disease” value is on record as “has antioxidant efficacy” and the lung function result is “can improve lung function to some extent”.
